From publication PMC5663982, “Imaging the Antistaphylococcal Activity of CATH-2: Mechanism of Attack and Regulation of Inflammatory Response” (mSphere, 2017)

Target: T1, CATH-2 (chicken cathelicidin-2) (Gallus gallus, UniProt Q2IAL7)
T1 construct: gene CATHL2; Fmoc synthesis, unlabelled; cut from the cathelicidin-2 precursor
T1 sequence (Q2IAL7 128-153): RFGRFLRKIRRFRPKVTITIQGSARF
Test: isothermal titration calorimetry
Format: binding
Details: PBS, 1.5% ethanol, 20 °C; 400 µM CATH-2 titrated into 200 µM cardiolipin (Sigma-Aldrich, source and acyl chains not told); n = 2, SEM; lipid suspension
Text: isothermal titration calorimetry on CATH-2 (chicken cathelicidin-2)

**Q.** cardiolipin was tested. Which Kd did it give?
**A.** Its Kd is 72.1 ± 57.1 nM.
